Data reported in paper PMC11082890, “Phenazine Cations as Anticancer Theranostics” (Journal of the American Chemical Society, 2024).

Legend:
Test in all cases: MTT cytotoxicity assay, 48 h
Format in all cases: cell-based
[1] = system: A2780 human ovarian cancer cells; settings: A2780, 48 h treatment, value (S.D.)
Protocol: (§1) First, the cytotoxicity of 1^2+ and 2^2+ toward several cancer cell lines was examined. The viability of cells exposed to their chloride salts was assessed by an MTT (3-(4,5-dimethylthiazol-2-yl)-2,5-diphenyltetrazolium bromide) assay, and the common chemotherapeutic agent cisplatin was employed as a positive control, Figure 3.
(§2) S2. Tissue Culture and Microscopy Methods
(§3) Cell media was purchased sterile from Sigma-Aldrich. A2780 human ovarian cancer cells and A2780CIS human ovarian cisplatin resistant cells were cultured in RPMI-1640 medium. MCF7 human breast cancer cells, T24 human bladder cancer cells and HEK293 human embryonic kidney cells were cultured in DMEM medium. All growth medium was supplemented with 10 % fetal bovine serum (FBS), 2 mM L-Glutamine, 100 IU mL-1 penicillin and 100 μg mL-1 streptomycin and sterile filtered before use. Cell cultures were grown by incubation at 37 ᵒC with 5 % CO2 and were frequently passaged with trypsin when confluency of around 80 % was reached.
(§4) All cells used were at passage numbers below 50.
(§5) S2b. Preparation of Compounds
(§6) Stock solutions of compounds were solubilized in 10 % PBS (Phosphate Buffer Saline) and 90 % media.
(§7) Solutions were then sterile filtered through a 0.22 μm filter prior to use.
(§8) S2c. Cytotoxicity (MTT Assay) and Determination of IC50 Values
(§9) MTT (3-(4,5-Dimethylthiazol2-yl)-2,5-diphenyltetrazolium bromide)) is a yellow tetrazolium salt that is reduced to formazan in metabolically active cells. Therefore, the purple coloured formazan can be dissolved and quantified through absorbance as a measure of cell viability. Cells were seeded in 48 well plates at a density of 5 x 10^4 cells per well and incubated for 24 hours prior to treatment. After 24 hours, compound (10 % PBS:
(§10) 90 % medium) was added over a concentration gradient from 0.1 to 100 μM with each concentration in triplicate. Some wells were treated with a concentration range of cisplatin as a positive control. Cells were incubated with the relevant concentrations of compound for 48 hours, after which the media was removed and replaced with MTT (0.5 mg mL-1 in serum-free medium) for a period of 30-45 minutes. The MTT solution was then carefully removed and the formazan eluted with isopropanol (130 μL per well). 100 μL from each well was transferred into a 96 well plate to enable quantification of cell viability using a plate reader measuring absorbance at 570 nm. An average absorbance was obtained for each concentration and the cell viability was then calculated as a percentage of the untreated negative control wells. A graph of cell viability against concentration was plotted and the IC50 (the concentration at which the cell viability is 50 %) determined by interpolation. The IC50 values are reported as an average of at least 3 independent biological replicates. […]
(§11) All plates were then incubated for another 24 hours following light treatment. Media was then removed from each well and replaced with MTT (0.5 mg mL-1 in serum-free medium) for 30-45 minutes. […]
(§12) The data was then plotted as a graph of cell viability against concentration to determine the IC50 values by interpolation before and after light treatment.

[2] = system: A2780CIS human ovarian cisplatin resistant cells; settings: 48 h treatment, value (S.D.)
Protocol: as §1, §2, §3, §4, §5, §6, §7, §8, §9, §10, §11, §12

[3] = system: HEK293 human embryonic kidney cells; settings: HEK293 noncancerous cells, 48 h treatment, value (S.D.)
Protocol: as §1, §2, §3, §4, §5, §6, §7, §8, §9, §10, §11, §12

[4] = system: MCF7 human breast cancer cells; settings: MCF7, 48 h treatment, value (S.D.)
Protocol: as §1, §2, §3, §4, §5, §6, §7, §8, §9, §10, §11, §12

[5] = system: T24 human bladder cancer cells; settings: T24, 48 h treatment, value (S.D.)
Protocol: as §1, §2, §3, §4, §5, §6, §7, §8, §9, §10, §11, §12

With `N.N.[Cl][Pt][Cl]` [cisplatin] the IC50 [1] was 1.3 µM, the IC50 [2] was 19 µM and the IC50 [3] was 5 µM. For the same molecule, the IC50 [4] was 26 µM and the IC50 [5] was 3 µM.
